Experiments:
human TLR7 (hTLR7) = biological target: T1, human TLR7 (hTLR7) (Homo sapiens, UniProt Q9NYK1); experiment: In vitro TLR7 activity assay (HEK-Blue hTLR7, QUANTI-Blue, Example 3); type: cell-based; details: 16 h incubation; Null 1-k subtracted
T1 construct: host or cells: HEK-293 (HEK-Blue hTLR7)
T1 sequence (Q9NYK1 27-1049): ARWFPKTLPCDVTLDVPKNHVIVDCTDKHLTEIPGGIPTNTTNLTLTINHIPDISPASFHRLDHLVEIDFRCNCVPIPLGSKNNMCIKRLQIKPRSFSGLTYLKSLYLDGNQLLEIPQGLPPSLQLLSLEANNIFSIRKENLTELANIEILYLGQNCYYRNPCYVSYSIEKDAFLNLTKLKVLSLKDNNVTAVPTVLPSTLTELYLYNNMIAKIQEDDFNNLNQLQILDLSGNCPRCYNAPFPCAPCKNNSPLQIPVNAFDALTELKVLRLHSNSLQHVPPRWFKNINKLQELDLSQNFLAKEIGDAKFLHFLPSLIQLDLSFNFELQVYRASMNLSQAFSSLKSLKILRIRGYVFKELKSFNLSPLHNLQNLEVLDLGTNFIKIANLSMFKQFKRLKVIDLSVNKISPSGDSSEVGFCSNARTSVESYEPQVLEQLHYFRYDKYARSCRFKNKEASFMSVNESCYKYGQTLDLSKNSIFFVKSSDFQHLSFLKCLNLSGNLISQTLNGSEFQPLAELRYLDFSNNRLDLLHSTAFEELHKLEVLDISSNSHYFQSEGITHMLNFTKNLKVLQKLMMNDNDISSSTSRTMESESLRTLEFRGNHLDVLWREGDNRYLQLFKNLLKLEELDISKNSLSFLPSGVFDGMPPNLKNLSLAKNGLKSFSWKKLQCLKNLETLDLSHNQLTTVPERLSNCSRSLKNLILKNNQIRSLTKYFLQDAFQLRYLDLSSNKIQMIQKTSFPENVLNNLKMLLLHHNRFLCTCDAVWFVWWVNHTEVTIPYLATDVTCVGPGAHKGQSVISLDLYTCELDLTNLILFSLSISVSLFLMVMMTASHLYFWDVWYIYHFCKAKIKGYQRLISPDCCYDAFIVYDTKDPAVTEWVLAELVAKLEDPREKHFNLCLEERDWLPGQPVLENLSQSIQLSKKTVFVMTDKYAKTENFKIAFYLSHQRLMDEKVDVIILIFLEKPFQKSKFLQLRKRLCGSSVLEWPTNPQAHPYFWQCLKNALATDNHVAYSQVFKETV
Procedure: TLR agonist activity was measured in a dose-response study using reporter cell lines expressing the human TLR7 (hTLR7). […] The hTLR7 activity of R848-Toco, the formulation and its components were assessed using HEK-293 cells co-transfected with the hTLR7 gene and an inducible SEAP reporter gene along with the corresponding null control line (HEK-Blue™ hTLR7 and Null-1k cells, Invivogen). Cells were maintained in DMEM media with selective antibiotics according to the manufacturer protocol.^26 HEK-Blue™ cells were seeded into 96 well plates at a density of 220,000 cells/mL with 180 μL/well of culture medium. Stock solutions in DMSO were first serially diluted to seven concentrations (DMSO solutions further diluted into H2O). Each well was stimulated with 20 μL of agonists or agonist-free controls (equivalent concentration of HA-Toco, D-α-Tocopherol succinate, PBS or […] DMSO) at the determined final concentrations in 5 replicates. After 16 h of incubation at 37° C. in a 5% CO2 atmosphere, 20 μL of the supernatant from each well was sampled and spiked into 180 μL of QUANTI-Blue™ solution followed by incubation for 1 h at 37° C. Relative hTLR7 activity was then analyzed by UV-Vis at 637 nm using a microplate UV reader (SpectraMAX GeminiXS, Molecular Devices, San Jose, CA, USA). For each compound and concentration, a corresponding sample was applied to the HEK-Blue™ Null-1k cell line. The TLR7 agonist activity was determined after averaging across hTLR7 replications and subtracting the averaged Null response.
Activation levels were calculated as the difference between the average readings of the hTLR7 cell line and the Null 1-k cell line, to account for non-hTLR7 related induction of NF-κB. […] Therefore, this study confirmed that R848-Toco, formulated with HA-Toco as an emulsion, maintained its TLR agonist activity. […]

[1] = test system: canine peripheral blood mononuclear cells (cPBMCs); experiment: Cytokine production in canine PBMCs by ELISA (Example 2); type: cell-based; details: ± SD, 20 μM, 29 hours, ELISA, triplicate
Procedure: The imidazoquinolines were further screened for cytokine production in canine peripheral blood mononuclear cells (cPBMCs). […] TNFα and IL-12 were chosen as they are typically seen in a Th-1 cytokine response.
Peripheral blood from a healthy canine donor was obtained with appropriate informed consent of the owner and under approved institutional guidelines. Blood (8 mL per tube) was drawn via sterile venipuncture into a BD Vacutainer cell preparation tube containing sodium heparin (BD Biosciences). PBMCs were isolated within one hour following procurement by density gradient centrifugation according to the manufacturer protocol and resuspended to 2.22×10^6 cells/mL in sterile RPMI 1640 medium with L-glutamine (Gibco) supplemented with 100 U/mL penicillin, 100 μg/mL streptomycin (Corning) and 10% (v/v) heat-inactivated Fetalgro (RMBIO). Corning 3917, 96-well tissue culture treated plates were seeded with the PBMC suspension (180 μL/well), 20 μL of the serially diluted TLR agonists were added in triplicate to yield the desired concentrations in a 1% (v/v) DMSO cell suspension. Cells were incubated at 37° C. in 5% CO2 for 9 hours (FIGS. 3A-3D) or 29 hours (Table 2) after which supernatants were removed and frozen at −80° C. Cytokine secretion levels were measured by ELISA (Duoset, R&D Systems) according to the manufacturer protocol. Samples and standards (n=3) were thawed and plated onto a Maxisorp flat-bottom, 384-well plate (Thermo Scientific) using a BioTek Precision XS pipetting system. Cytokine concentrations were determined by a hyperbolic or four-parameter logistic non-linear regression of the recombinant standards and subsequent interpolation using Graphpad Prism 7.0.

Question: For CCOCc1nc2c(N)nc3ccccc3c2n1CC(C)(C)O [Compound 2, resiquimod, reference compound], which “hTLR7 activation (NF-κB, in words)” value (human TLR7 (hTLR7)) is on record?
Answer: strong dose-dependent activation

Question: What about the “Cytokine IFNg” value [1] of the same molecule?
Answer: 26 ± 7 pg/mL

Question: What about the “Cytokine IL-2” value [1] of the same molecule?
Answer: 120 ± 12 pg/mL

Question: And the “Cytokine IL-6” value [1]?
Answer: 380 ± 80 pg/mL

Question: What about the “Cytokine IL-10” value [1] of the same molecule?
Answer: 21 ± 2 pg/mL

Question: And the “Cytokine IL-12” value [1]?
Answer: 2800 ± 520 pg/mL

Question: And the “Cytokine TNFa” value [1]?
Answer: 190 ± 30 pg/mL

From patent US12295970B2, “Imidazoquinoline compounds and prodrugs thereof” (UNIVERSITY OF KANSAS, priority 2019, dated 2025)
